Molecular target: T1, human GPR119 (Homo sapiens, UniProt Q8TDV5)
T1 construct: expressed in transfected cells; host or cells: HEK293 (transient transfection, Lipofectamine 2000)
T1 sequence (Q8TDV5 1-335): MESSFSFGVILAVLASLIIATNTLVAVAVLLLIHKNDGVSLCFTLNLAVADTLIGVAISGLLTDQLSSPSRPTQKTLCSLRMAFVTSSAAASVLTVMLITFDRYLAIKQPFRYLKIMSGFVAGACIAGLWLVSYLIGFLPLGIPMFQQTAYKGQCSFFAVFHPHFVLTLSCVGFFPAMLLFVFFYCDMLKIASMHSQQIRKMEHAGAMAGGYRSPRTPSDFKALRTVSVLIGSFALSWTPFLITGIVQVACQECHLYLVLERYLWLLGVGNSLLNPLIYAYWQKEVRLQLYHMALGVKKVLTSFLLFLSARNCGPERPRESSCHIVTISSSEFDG
Assay: In vitro cyclic AMP assay (Cisbio HTRF) in HEK293 cells transfected with human GPR119
Assay type: cell-based
Conditions: cAMP; for activation at 10 µM: 1 h, % Induction @ 10 μM; for EC50: Emax varies between 65 to 80%
Experimental: A. In Vitro Cyclic AMP Assay:
cAMP measurements were done using a Cisbio dynamic 2 HTRF kit (Cisbio, Bedford, Mass.) according to the manufacturer's protocol. Briefly, HEK293 cells (0.2×10^6/well) were plated in a 24 well plate and incubated overnight at 37° C. Cells were transfected with either empty vector DNA or human GPR119 expression plasmid DNA using Lipofectamine 2000 (Invitrogen). After 24 h, transfected cells were harvested, counted and plated at 1000 cells/5 ul in a black 384 welled small volume plate. Cells were treated with desired concentrations of compounds and incubated for 60 min at room temperature. Lysis buffer containing cAMP-d2 and cryptate conjugate were added and incubated for 1 h. HRTF ratio was measured on a microplate reader (BMG Labtech., Germany) at an excitation wavelength of 337 nm and emission wavelengths of 665 and 620 nm with an integration time of 400 μsec. Data were analyzed using Graphpad Prism (Graphpad software; San Diego Calif.) for EC50 determination.
The results are as given in Table I as % Induction@ 10 μM, Table II as % Induction@ 10 μM and EC 50 in nM

Compound	activation at 10 µM (Table II)	EC50 (Table II)	activation at 10 µM (Table I)	EC50 (Table I)
CC(C)OC(=O)N1CCC(c2ccc3nc(-c4ccc(S(C)(=O)=O)cc4F)sc3c2)CC1 [EXAMPLE-76, Isopropyl 4-{2-[2-fluoro-4-(methylsulfonyl)phenyl]benzo[d]thiazol-6-yl}piperidine-1-carboxylate]	74.9%	50 to 250 nM	–	–
CC(C)(C)OC(=O)N1CCC(c2nc3cc(-c4ccc(C(N)=O)c(F)c4)ccc3o2)CC1 [EXAMPLE-21, Tert-butyl 4-[5-(4-carbamoyl-3-fluorophenyl)benzo[d]oxazol-2-yl]piperidine-1-carboxylate]	–	–	59%	50 to 100 nM
CCc1cnc(N2CCC(c3nc4cc(-c5ccc(S(C)(=O)=O)cc5F)ccc4o3)CC2)nc1 [EXAMPLE-3, 2-[1-(5-ethylpyrimidin-2-yl)piperidin-4-yl]-5-[2-fluoro-4-(methylsulfonyl)phenyl]benzo[d]oxazole]	–	–	35.4%	–
CC(C)OC(=O)N1CCC(c2nc3cc(-c4ccc(C(F)F)cc4)ccc3o2)CC1 [EXAMPLE-29, Isopropyl 4-{5-[4-(difluoromethyl)phenyl]benzo[d]oxazol-2-yl}piperidine-1-carboxylate]	–	–	78.6%	25 to 50 nM
CC(C)(C)OC(=O)N1CCC(c2cnc3oc(-c4ccc(C(F)(F)F)cc4)nc3c2)CC1 [EXAMPLE-87, Tert-butyl 4-{2-[4-(trifluoromethyl)phenyl]oxazolo[5,4-b]pyridin-6-yl}piperidine-1-carboxylate]	47.3%	–	–	–
CC(C)OC(=O)N1CCC(c2nc3cc(-c4ccc(-n5cnnn5)cc4F)ccc3o2)CC1 [EXAMPLE-14, Isopropyl 4-{5-[2-fluoro-4-(1H-tetrazol-1-yl)phenyl]benzo[d]oxazol-2-yl}piperidine-1-carboxylate]	–	–	68.6%	25 to 50 nM
CS(=O)(=O)c1ccc(-c2nc3cc(C4CCN(S(=O)(=O)CCCO)CC4)ccc3o2)c(F)c1 [EXAMPLE-80, 3-{4-[2-(2-fluoro-4-(methylsulfonyl)phenyl)benzo[d]oxazol-5-yl]piperidin-1-ylsulfonyl}propan-1-ol]	26.4%	–	–	–
CC(C)(C)OC(=O)N1CCC(c2nc3cc(-c4ccc(C(F)(F)F)cc4)ccc3o2)CC1 [EXAMPLE-13, Tert-butyl 4-{5-[4-(trifluoromethyl)phenyl]benzo[d]oxazol-2-yl}piperidine-1-carboxylate]	–	–	68.2%	100 to 500 nM
CC(C)OC(=O)N1CCC(c2nc3cc(-c4ccc(C(N)=O)c(F)c4)ccc3o2)CC1 [EXAMPLE-31, Isopropyl 4-[5-(4-carbamoyl-3-fluorohenyl)benzo[d]oxazol-2-yl]piperidine-1-carboxylate]	–	–	80.4%	≤ 25 nM
CC(C)COC(=O)N1CCC(c2ccc3oc(-c4ccc(S(C)(=O)=O)cc4F)nc3c2)CC1 [EXAMPLE-75, Isobutyl 4-{2-[2-fluoro-4-(methylsulfonyl)phenyl]benzo[d]oxazol-5-yl}piperidine-1-carboxylate]	57.5%	–	–	–
CCc1cnc(N2CCC(c3nc4cc(-c5ccc(S(C)(=O)=O)cc5F)ccc4[nH]3)CC2)nc1 [EXAMPLE-1, 2-[1-(5-Ethylpyrimidin-2-yl)piperidin-4-yl]-5-[2-fluoro-4-(methylsulfonyl)phenyl]-1H-benzo[d]imidazole]	–	–	55.4%	–
CS(=O)(=O)c1ccc(-c2nc3cc(C4=CCN(S(=O)(=O)CCCO)CC4)ccc3o2)c(F)c1 [EXAMPLE-79, 3-{4-[2-(2-fluoro-4-(methylsulfonyl)phenyl)benzo[d]oxazol-5-yl]-5,6-dihydropyridin-1(2H)-ylsulfonyl}propan-1-ol]	46.2%	–	–	–
CC(C)OC(=O)N1CCC(c2nc3cc(-c4ccc(C=O)cc4)ccc3o2)CC1 [EXAMPLE-28, Isopropyl 4-[5-(4-formylphenyl)benzo[d]oxazol-2-yl]piperidine-1-carboxylate]	–	–	45.4%	–
CC(C)(C)OC(=O)N1CCC(c2nc3cc(-c4ccc(S(C)(=O)=O)cc4F)ccc3o2)CC1 [EXAMPLE-4, tert-butyl 4-{5-[2-fluoro-4-(methylsulfonyl)phenyl]benzo[d]oxazol-2-yl}piperidine-1-carboxylate]	–	–	74.2%	50 to 100 nM
Cc1ccc(-c2nc3ccc(C4CCN(C(=O)OC(C)C)CC4)cc3o2)cc1 [EXAMPLE-78, Isopropyl 4-(2-p-tolylbenzo[d]oxazol-6-yl)piperidine-1-carboxylate]	59.4%	–	–	–
CC(C)OC(=O)N1CCC(c2nc3cc(-c4ccc(C(F)(F)F)cc4)ccc3o2)CC1 [EXAMPLE-27, Isopropyl 4-{5-[4-(trifluoromethyl)phenyl]benzo[d]oxazol-2-yl}piperidine-1-carboxylate]	–	–	46.5%	–
CC(C)(C)OC(=O)N1CCC(c2nc3cc(-c4ccc(C(N)=O)c(Cl)c4)ccc3o2)CC1 [EXAMPLE-20, Tert-butyl 4-[5-(4-carbamoyl-3-chlorophenyl)benzo[d]oxazol-2-yl]piperidine-1-carboxylate]	–	–	73.9%	25 to 50 nM
CC(C)(C)OC(=O)N1CCC(c2nc3cc(-c4ccc(-n5cnnn5)cc4)ccc3o2)CC1 [EXAMPLE-11, Tert-butyl 4-{5-[4-(1H-tetrazol-1-yl)phenyl]benzo[d]oxazol-2-yl}piperidine-1-carboxylate]	–	–	70.1%	–
CCC(CC)OC(=O)N1CCC(c2nc3cc(-c4ccc(-n5cnnn5)cc4F)ccc3o2)CC1 [EXAMPLE-25, Pentan-3-yl 4-{5-[2-fluoro-4-(1H-tetrazol-1-yl)phenyl]benzo[d]oxazol-2-yl}piperidine-1-carboxylate]	–	–	63.4%	–
CC(C)(C)OC(=O)N1CCC(c2nc3cc(-c4ccc(-n5cnnn5)c(F)c4)ccc3o2)CC1 [EXAMPLE-15, Tert-butyl 4-{5-[3-fluoro-4-(1H-tetrazol-1-yl)phenyl]benzo[d]oxazol-2-yl}piperidine-1-carboxylate]	–	–	77.7%	100 to 500 nM
CC(C)(C)OC(=O)N1CC=C(c2ccc3sc(-c4ccc(S(C)(=O)=O)cc4F)nc3c2)CC1 [EXAMPLE-66, Tert-butyl 4-{2-[2-fluoro-4-(methylsulfonyl)phenyl]benzo[d]thiazol-5-yl}-5,6-dihydropyridine-1(2H)-carboxylate]	18.9%	–	–	–
Cn1c(C2CCN(C(=O)OC(C)(C)C)CC2)nc2cc(-c3ccc(S(C)(=O)=O)cc3F)ccc21 [EXAMPLE-5, Tert-butyl 4-{5-[2-fluoro-4-(methylsulfonyl)phenyl]-1-methyl-1H-benzo[d]imidazol-2-yl}piperidine-1-carboxylate]	–	–	41%	–
CC(C)(C)OC(=O)N1CCC(c2nc3ccc(-c4ccc(S(C)(=O)=O)cc4F)cc3o2)CC1 [EXAMPLE-6, Tert-butyl 4-{6-[2-fluoro-4-(methylsulfonyl)phenyl]benzo[d]oxazol-2-yl}piperidine-1-carboxylate]	–	–	73.2%	25 to 50 nM
CC(C)(C)OC(=O)N1CCC(c2ccc3nc(-c4ccc(S(C)(=O)=O)cc4F)oc3c2)CC1 [EXAMPLE-67, Tert-butyl 4-{2-[2-fluoro-4-(methylsulfonyl)phenyl]benzo[d]oxazol-6-yl}piperidine-1-carboxylate]	73%	25 to 50 nM	–	–
CC(C)OC(=O)N1CCC(c2ccc3nc(-c4ccc(S(C)(=O)=O)cc4F)oc3c2)CC1 [EXAMPLE-71, Isopropyl 4-{2-[2-fluoro-4-(methylsulfonyl)phenyl]benzo[d]oxazol-6-yl}piperidine-1-carboxylate]	76.6%	≤ 25 nM	–	–

— patent publication US9181214B2 (RHIZEN PHARMACEUTICALS SA, priority 2011, dated 2015)
